What is called inhibition is the percentage by which the read-out fell short of the control. One may read the inhibition in vivo as the change of the read-out against control, counted positive when it falls.

What all share (assay type): functional
The species entered for test [1] is Cavia porcellus. The test can be described thus: In vitro percent inhibition of LTD4 release from sensitized guinea pig lung fragment at dose of 3 uM.
Test [2] concerns Cavia porcellus. The test can be described thus: In vivo percent inhibition of ovalbumin induced bronchospasm in sensitized guinea pig after peroral administration at dose of 2 mg/kg for single dose. To be noted: route oral.
The species entered for test [3] is Cavia porcellus. As to the kind of experiment: In vitro percent inhibition of LTD4 release from sensitized guinea pig lung fragment at dose of 1 uM.
The subject of test [4] is Cavia porcellus. As to the kind of experiment: In vivo percent inhibition of ovalbumin induced bronchospasm in sensitized guinea pig after peroral administration at dose of 1 mg/kg for single dose. The conditions noted are these: route oral.
The subject of test [5] is Cavia porcellus. As to the kind of experiment: In vivo percent inhibition of ovalbumin induced bronchospasm in sensitized guinea pig after peroral administration at dose of 0.25 mg/kg for single dose. The conditions noted are these: route oral.
The test system of test [6] is Cavia porcellus. The test can be described thus: In vivo percent inhibition of ovalbumin induced bronchospasm in sensitized guinea pig after peroral administration at dose of 0.5 mg/kg for multiple dose. The conditions noted are these: route oral.
Test [7] concerns Cavia porcellus. The test can be described thus: In vivo percent inhibition of ovalbumin induced bronchospasm in sensitized guinea pig after peroral administration at dose of 0.5 mg/kg for single dose. To be noted: route oral.
The species entered for test [8] is Cavia porcellus. The test can be described thus: In vitro percent inhibition of LTD4 release from sensitized guinea pig lung fragment at dose of 10 uM.
Test [9] deals with Cavia porcellus. The test can be described thus: In vivo percent inhibition of ovalbumin induced bronchospasm in sensitized guinea pig after peroral administration at dose of 12 mg/kg for single dose. To be noted: route oral.
Test [10] concerns Cavia porcellus. The test can be described thus: In vivo percent inhibition of ovalbumin induced bronchospasm in sensitized guinea pig after peroral administration at dose of 25 mg/kg for single dose. The conditions noted are these: route oral.
Test [11] concerns Cavia porcellus. As to the kind of experiment: In vivo percent inhibition of ovalbumin induced bronchospasm in sensitized guinea pig after peroral administration at dose of 3 mg/kg for single dose. To be noted: route oral.
The subject of test [12] is Cavia porcellus. The test can be described thus: In vivo percent inhibition of ovalbumin induced bronchospasm in sensitized guinea pig after peroral administration at dose of 6.25 mg/kg for multiple dose. To be noted: route oral.
Test [13] has as its system Cavia porcellus. The test can be described thus: In vivo percent inhibition of ovalbumin induced bronchospasm in sensitized guinea pig after peroral administration at dose of 12.5 mg/kg for multiple dose. The conditions noted are these: route oral.
In test [14] the test system is Cavia porcellus. As to the kind of experiment: In vivo percent inhibition of ovalbumin induced bronchospasm in sensitized guinea pig after peroral administration at dose of 10 mg/kg for single dose. To be noted: route oral.
Test [15] has as its system Cavia porcellus. The test can be described thus: In vivo percent inhibition of ovalbumin induced bronchospasm in sensitized guinea pig after peroral administration at dose of 2 mg/kg for multiple dose. To be noted: route oral.
In test [16] the test system is Cavia porcellus. As to the kind of experiment: In vivo percent inhibition of ovalbumin induced bronchospasm in sensitized guinea pig after peroral administration at dose of 1 mg/kg for multiple dose. The conditions noted are these: route oral.
The subject of test [17] is Cavia porcellus. As to the kind of experiment: In vivo percent inhibition of ovalbumin induced bronchospasm in sensitized guinea pig after peroral administration at dose of 3.13 mg/kg for multiple dose. To be noted: route oral.
The test system of test [18] is Cavia porcellus. As to the kind of experiment: In vivo percent inhibition of ovalbumin induced bronchospasm in sensitized guinea pig after peroral administration at dose of 5 mg/kg for single dose. To be noted: route oral.

Regarding `COc1ccc(-n2c(=O)c3c(c4cccnc42)OCC3)cc1`, the inhibition at 3 µM in the test filed under Cavia porcellus [1] turned out to be 17%.

For the compound `CC1Cc2c(c3cccnc3n(-c3cccc(Cl)c3)c2=O)O1` (stereo unspecified), in the test with Cavia porcellus [2], the inhibition in vivo at 2 mg/kg was found to be 38%. In addition, the inhibition at 1 µM in the test listed under Cavia porcellus [3] came to 64%.

As to `O=c1c2c(c3cccnc3n1-c1cccc(Cl)c1)OCCCC2`, in the test with Cavia porcellus [4], the inhibition in vivo at 1 mg/kg worked out at 74%. Besides, the inhibition in vivo at 2 mg/kg with Cavia porcellus [2] was 85%. The inhibition at 3 µM in the test filed under Cavia porcellus [1] stood at 62%. The inhibition in vivo at 0.25 mg/kg in the test with Cavia porcellus [5] amounted to 27%. The figures for the inhibition in vivo at 0.5 mg/kg in the test on Cavia porcellus [6] and with Cavia porcellus [7] were 50% and 62%, respectively. In addition, the inhibition at 1 µM in the test filed under Cavia porcellus [3] is 100%.

As to `Cc1ccc(-n2c(=O)c3c(c4cccnc42)OCC3)cc1`, the inhibition at 10 µM in the test filed under Cavia porcellus [8] worked out at 59%. Moreover, the inhibition at 3 µM in the test listed under Cavia porcellus [1] is 28%.

Consider `O=c1c2c(c3cccnc3n1-c1ccccc1)OCC2`, for which, in the test with Cavia porcellus [9], the inhibition in vivo at 12 mg/kg was 86%. Further, in the test with Cavia porcellus [10], the inhibition in vivo at 25 mg/kg stood at 79%. Moreover, in the test with Cavia porcellus [11], the inhibition in vivo at 3 mg/kg was found to be 42%. The inhibition in vivo at 6.25 mg/kg with Cavia porcellus [12] stood at 65%. In addition, in the test filed under Cavia porcellus [8], the inhibition at 10 µM stood at 72%. In addition, the inhibition at 3 µM in the test filed under Cavia porcellus [1] amounted to 54%. Moreover, the inhibition in vivo at 12.5 mg/kg in the test on Cavia porcellus [13] was 90%.

Take `COc1ccc(-n2c(=O)c3c(c4cccnc42)OCCC3)cc1`: the inhibition at 3 µM in the test filed under Cavia porcellus [1] came to 28%.

Regarding `O=c1c2c(c3cccnc3n1-c1ccc(Cl)cc1)OCC2`, in the test filed under Cavia porcellus [1], the inhibition at 3 µM came out at 33%.

Consider `O=c1c2c(c3cccnc3n1-c1ccc(Cl)cc1)OCCC2`, for which the inhibition at 3 µM in the test listed under Cavia porcellus [1] worked out at 33%.

Regarding `CC1Cc2c(c3cccnc3n(-c3ccccc3)c2=O)O1` (stereo unspecified), in the test filed under Cavia porcellus [8], the inhibition at 10 µM was determined as 60%.

For `Cc1ccc(-n2c(=O)c3c(c4cccnc42)OCCC3)cc1`, the inhibition at 3 µM in the test listed under Cavia porcellus [1] was 27%.

Turning to `O=c1c2c(c3cccnc3n1-c1ccccc1)OCCCC2`, the inhibition in vivo at 2 mg/kg in the test with Cavia porcellus [2] is 71%. Also, the inhibition at 3 µM in the test listed under Cavia porcellus [1] amounted to 75%.

In the case of `O=c1c2c(c3cccnc3n1-c1cccc(Cl)c1)OCC2`, the inhibition in vivo at 10 mg/kg in the test with Cavia porcellus [14] worked out at 93%. Also, the inhibition in vivo at 2 mg/kg in the test on Cavia porcellus [15] is 62%; with Cavia porcellus [2], 87%. Besides, in the test filed under Cavia porcellus [1], the inhibition at 3 µM was determined as 71%. Also, in the test with Cavia porcellus [16], the inhibition in vivo at 1 mg/kg came to 21%.

For `O=c1c2c(c3cccnc3n1-c1ccc(Cl)c(Cl)c1)OCCC2`, the inhibition at 3 µM in the test filed under Cavia porcellus [1] was 48%.

As to `O=c1c2c(c3cccnc3n1-c1ccccc1)OCCC2`, the inhibition in vivo at 25 mg/kg in the test on Cavia porcellus [10] worked out at 62%. For the same compound, the inhibition in vivo at 3.13 mg/kg with Cavia porcellus [17] turned out to be 20%. Also, the inhibition in vivo at 6.25 mg/kg in the test on Cavia porcellus [12] was 51%. Further, the inhibition at 10 µM in the test filed under Cavia porcellus [8] was 62%. Also, the inhibition at 3 µM in the test filed under Cavia porcellus [1] is 26%. In addition, the inhibition in vivo at 12.5 mg/kg in the test on Cavia porcellus [13] was determined as 43%.

As to `O=c1c2c(c3cccnc3n1-c1ccc(Cl)c(Cl)c1)OCC2`, the inhibition in vivo at 5 mg/kg in the test with Cavia porcellus [18] is 0%. In addition, the inhibition at 10 µM in the test filed under Cavia porcellus [8] came out at 63%. Moreover, in the test filed under Cavia porcellus [1], the inhibition at 3 µM is 62%.
